T/C data for 20 molecules are collected here from PubChem BioAssay AID330 (DTP/NCI, 2004).

Structures are written as SMILES. Where “and” joins values, the source holds several entries; their conditions need not be identical. Equal values may be shown once. Toxic doses and inconclusive results are not listed.

The test system of the test is P388 leukemia ip, CD2F1 mice, survival T/C. Nature of the test: NCI In Vivo Anticancer Drug Screen. Data for tumor model P388 Leukemia (intraperitoneal) in CD2F1 (CDF1) mice. The settings on record: endpoint: median survival time, higher = longer survival. A digest of the protocol: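 Mice carrying the transplanted tumor received test compound or vehicle. Survival was recorded in each group, and the value is the treated-group measurement divided by that of the vehicle-treated control group.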

Where [1] appears, read: dose: 50.0 mg/kg/injection, schedule: Q01DX009 (ip), vehicle: other.
Setting [2] is: dose: 100.0 mg/kg/injection, schedule: Q04DX002 (ip), vehicle: saline with Tween-80.
Where [3] appears, read: dose: 200.0 mg/kg/injection, schedule: Q04DX002 (ip), vehicle: saline with Tween-80.
[4] abbreviates: dose: 400.0 mg/kg/injection, schedule: Q04DX002 (ip), vehicle: saline with Tween-80.
Where [5] appears, read: dose: 50.0 mg/kg/injection, schedule: Q01DX009 (ip), vehicle: Klucel (hydroxypropylcellulose) (HPC).
The mark [6] stands for this setting: dose: 100.0 mg/kg/injection, schedule: Q01DX009 (ip), vehicle: Klucel (hydroxypropylcellulose) (HPC).
The mark [7] stands for this setting: dose: 200.0 mg/kg/injection, schedule: Q01DX009 (ip), vehicle: Klucel (hydroxypropylcellulose) (HPC).
Where [8] appears, read: dose: 50.0 mg/kg/injection, schedule: Q01DX009 (ip), vehicle: saline.
[9] abbreviates: dose: 100.0 mg/kg/injection, schedule: Q01DX009 (ip), vehicle: saline.
Where [10] appears, read: dose: 200.0 mg/kg/injection, schedule: Q01DX009 (ip), vehicle: saline.
Setting [11] is: dose: 60.0 mg/kg/injection, schedule: Q01DX005 (ip), vehicle: saline with Tween-80.
The mark [12] stands for this setting: dose: 120.0 mg/kg/injection, schedule: Q01DX005 (ip), vehicle: saline with Tween-80.
[13] abbreviates: dose: 240.0 mg/kg/injection, schedule: Q01DX005 (ip), vehicle: saline with Tween-80.

With `Cc1c2ccnc(C(N)=O)c2c(C)c2c1[nH]c1ccccc12`, the T/C (dose: 6.25 mg/kg/injection, schedule: Q04DX002 (ip), vehicle: distilled water + Tween-80) is 99 % of control; the T/C (dose: 6.25 mg/kg/injection, schedule: Q04DX003 (ip), vehicle: distilled water + Tween-80) is 111 % of control; the T/C (dose: 12.5 mg/kg/injection, schedule: Q04DX002 (ip), vehicle: distilled water + Tween-80) is 99 % of control; the T/C (dose: 12.5 mg/kg/injection, schedule: Q04DX003 (ip), vehicle: distilled water + Tween-80) is 112 % of control; the T/C (dose: 25.0 mg/kg/injection, schedule: Q04DX002 (ip), vehicle: distilled water + Tween-80) was 99 % of control; the T/C (dose: 25.0 mg/kg/injection, schedule: Q04DX003 (ip), vehicle: distilled water + Tween-80) was 112 % of control. Moreover, the T/C was 104 % of control (dose: 50.0 mg/kg/injection, schedule: Q04DX002 (ip), vehicle: distilled water + Tween-80); 104 % of control (dose: 50.0 mg/kg/injection, schedule: Q04DX003 (ip), vehicle: distilled water + Tween-80); 104 % of control and 111 % of control (dose: 100.0 mg/kg/injection, schedule: Q04DX002 (ip), vehicle: distilled water + Tween-80); 111 % of control (dose: 100.0 mg/kg/injection, schedule: Q04DX003 (ip), vehicle: distilled water + Tween-80); 118 % of control (dose: 200.0 mg/kg/injection, schedule: Q04DX002 (ip), vehicle: distilled water + Tween-80); 115 % of control (dose: 200.0 mg/kg/injection, schedule: Q04DX003 (ip), vehicle: distilled water + Tween-80). Also, where the note is “dose: 800.0 mg/kg/injection, schedule: Q04DX002 (ip), vehicle: distilled water + Tween-80”, the T/C was 155 % of control.

With `O=C(O)C(Cc1cccs1)NC(=O)C(F)(F)F` (configuration not stated), the T/C is, setting by setting: (dose: 50.0 mg/kg/injection, schedule: Q01DX009 (ip), vehicle: saline + alcohol) 99 % of control; (dose: 100.0 mg/kg/injection, schedule: Q01DX009 (ip), vehicle: saline + alcohol) 93 % of control; (dose: 200.0 mg/kg/injection, schedule: Q01DX009 (ip), vehicle: saline + alcohol) 92 % of control.

With `Clc1cc(-c2ccccc2)no1`, the T/C by setting is: (dose: 25.0 mg/kg/injection, schedule: Q04DX003 (ip), vehicle: Klucel (hydroxypropylcellulose) (HPC)) 109 % of control; (dose: 50.0 mg/kg/injection, schedule: Q04DX003 (ip), vehicle: Klucel (hydroxypropylcellulose) (HPC)) 108 % of control; (dose: 100.0 mg/kg/injection, schedule: Q04DX003 (ip), vehicle: Klucel (hydroxypropylcellulose) (HPC)) 99 % of control and 112 % of control.

For `CCCCCC(C)[P+](c1ccccc1)(c1ccccc1)c1ccccc1` (configuration not stated), the T/C (dose: 0.39 mg/kg/injection, schedule: Q01DX009 (ip), vehicle: saline with Tween-80) is 101 % of control; the T/C (dose: 0.78 mg/kg/injection, schedule: Q01DX009 (ip), vehicle: saline with Tween-80) was 114 % of control and 120 % of control.

In the case of `COc1cc([N+](=O)[O-])c2nc(Cl)ccc2c1[N+](=O)[O-]`, the T/C (dose: 1.56 mg/kg/injection, schedule: Q01DX009 (ip), vehicle: other) was 96 % of control; the T/C (dose: 3.13 mg/kg/injection, schedule: Q01DX009 (ip), vehicle: other) is 97 % of control; the T/C (dose: 6.25 mg/kg/injection, schedule: Q01DX009 (ip), vehicle: other) was 104 % of control; the T/C (dose: 12.5 mg/kg/injection, schedule: Q01DX009 (ip), vehicle: other) is 94 % of control; the T/C under setting [1] was 99 % of control.

For `CNCC(=O)c1ccc(O)c(O)c1N=O`, the T/C is, setting by setting: under setting [2], 114 % of control; under setting [3], 108 % of control; under setting [4], 108 % of control.

`Cc1ccc(CNc2ccccc2)cc1`: the T/C runs as follows: (dose: 100.0 mg/kg/injection, schedule: Q01DX009 (ip), vehicle: other) 100 % of control; (dose: 200.0 mg/kg/injection, schedule: Q01DX009 (ip), vehicle: other) 100 % of control; (dose: 400.0 mg/kg/injection, schedule: Q01DX009 (ip), vehicle: other) 100 % of control.

Turning to `CCOC(=O)C(Cl)(SC(Cl)(S(=O)(=O)c1ccccc1)S(=O)(=O)c1ccccc1)C(=O)OCC`, the T/C was 102 % of control under setting [5], 99 % of control under setting [6] and 97 % of control under setting [7].

As for `CC(CN(CC(=O)O)CC(=O)O)N(CC(=O)O)CC(=O)O.[Cl][Pd][Cl]` (configuration not stated), the T/C (dose: 60.0 mg/kg/injection, schedule: Q01DX005 (ip), vehicle: saline) is 94 % of control and the T/C (dose: 120.0 mg/kg/injection, schedule: Q01DX005 (ip), vehicle: saline) was 91 % of control.

In the case of `C=C(C)C(=NC(C)(C)C)Nc1cccc(Cl)c1`, the T/C by setting is: under setting [8], 100 % of control; under setting [9], 104 % of control; under setting [10], 100 % of control.

In the case of `O=C(Cc1csc2ccccc12)NCC1CC1`, the T/C reads like this: under setting [11], 100 % of control; under setting [12], 99 % of control; under setting [13], 99 % of control.

Take `C/C=C(\C)C(=O)OC1C(O)C(C)(C)C2C3C(=O)C=C(C)C2C3(C)C1OC(=O)/C(C)=C/C` (configuration not stated): the T/C (dose: 12.5 mg/kg/injection, schedule: Q01DX009 (ip), vehicle: Klucel (hydroxypropylcellulose) (HPC)) is 103 % of control; the T/C (dose: 25.0 mg/kg/injection, schedule: Q01DX009 (ip), vehicle: Klucel (hydroxypropylcellulose) (HPC)) was 100 % of control; the T/C under setting [5] was 103 % of control; the T/C under setting [6] is 103 % of control.

As for `CCCCOP(O)(=S)OCCCC.[Tb]`, the T/C runs as follows: under setting [2], 100 % of control; under setting [3], 96 % of control; under setting [4], 95 % of control.

Consider `Cc1cccc(=O)n1C`, for which the T/C under setting [8] is 102 % of control, the T/C under setting [9] was 102 % of control and the T/C under setting [10] was 100 % of control.

Take `CCC1(CC(=O)O)OCCc2c1[nH]c1c(C)c(Cl)ccc21` (configuration not stated): the T/C reads like this: (dose: 50.0 mg/kg/injection, schedule: Q01DX001 (ip), vehicle: Klucel (hydroxypropylcellulose) (HPC)) 101 % of control; (dose: 100.0 mg/kg/injection, schedule: Q01DX001 (ip), vehicle: Klucel (hydroxypropylcellulose) (HPC)) 101 % of control; (dose: 200.0 mg/kg/injection, schedule: Q01DX001 (ip), vehicle: Klucel (hydroxypropylcellulose) (HPC)) 100 % of control.

For `O=C(NCCCl)Nc1ccnc(=O)[nH]1`, the T/C is, setting by setting: (dose: 50.0 mg/kg/injection, schedule: Q01DX005 (ip), vehicle: saline with Tween-80) 107 % of control; (dose: 100.0 mg/kg/injection, schedule: Q01DX005 (ip), vehicle: saline with Tween-80) 107 % of control; (dose: 200.0 mg/kg/injection, schedule: Q01DX005 (ip), vehicle: saline with Tween-80) 111 % of control.

On to `COc1cc(Br)c(C(=O)N(C)c2ccccc2)cc1OC`, for which the T/C is 106 % of control (dose: 25.0 mg/kg/injection, schedule: Q01DX009 (ip), vehicle: other) and 108 % of control under setting [1].

Turning to `Cc1cc(NS(=O)(=O)c2ccc(N)cc2)no1`, the T/C was 106 % of control (dose: 25.0 mg/kg/injection, schedule: Q01DX005 (ip), vehicle: saline); 103 % of control (dose: 50.0 mg/kg/injection, schedule: Q01DX005 (ip), vehicle: saline); 114 % of control (dose: 100.0 mg/kg/injection, schedule: Q01DX005 (ip), vehicle: saline); 101 % of control (dose: 200.0 mg/kg/injection, schedule: Q01DX005 (ip), vehicle: saline); 97 % of control (dose: 400.0 mg/kg/injection, schedule: Q01DX005 (ip), vehicle: saline).

In the case of `C[C@@H]1C(N2CCCC2)=CC(=O)OC1c1ccccc1` (some centres not stated), the T/C is, setting by setting: under setting [11], 105 % of control; under setting [12], 109 % of control; under setting [13], 111 % of control.

Consider `Nc1nnc2cc(Br)ccc2n1`, for which the T/C was 102 % of control under setting [5], 99 % of control under setting [6] and 100 % of control under setting [7].
